Measured values taken from US11879145B2, “Reagents and methods for replication, transcription, and translation in semi-synthetic organisms” (The Scripps Research Institute, priority 2019, dated 2024).

Test system: sfGFP^151(AXC)
Experiment: In vivo translation screen of XTPs/YTPs: total sfGFP fluorescence
Format: cell-based, E. coli
Description: In vivo Translation Screen of XTPs/YTPs. An overnight culture of the SSO strain ML2 carrying the pGEX-MbPylRS TetR plasmid was grown in 2×YT supplemented with 50 mM potassium phosphate, […] chloramphenicol and 100 μg/mL carbenicillin (herein referred to in this section as “media”), then diluted back to an OD600 of 0.03 in the same media and grown to an OD600 of 0.4 to 0.6. The culture was then chilled with shaking over ice-water for 15 minutes then pelleted by centrifugation at 3,200×g for 10 min. Cells were then resuspended and washed with ice-cold ddH2O twice then resuspended in ice-cold ddH2O to OD600 of 55-65. The electrocompetent cells (50 μL) and 1 ng of Golden Gate assembled plasmid with the UBP within the sfGFP and tRNAPyl genes (see Golden Gate Assembly of Plasmids) were transferred to a pre-chilled electroporation cuvette (0.2-cm-gap), then electroporated (Gene Pulser II; Bio-Rad) according to manufacturer's recommendations (voltage […], capacitor 2.5 μF, resistor 200Ω), and then immediately diluted with 950 μL of media. An aliquot (40 μL) of the transformation was then diluted five-fold in media supplemented with dCNMOTP (25 μM) and dTPT3TP (10 μM) for a final volume of 200 μL then allowed to recover for 1 h shaking at 37° C. Two-fold dilutions of the recovery were plated onto solid media supplemented with zeocin (50 μg/mL), dCNMOTP (10 μM), dTPT3TP (10 μM), and agar (2% w/v), then grown at 37° C. for 18 h. Single colonies were picked and grown in media (300 μL) supplemented with 50 μg/mL zeocin and provided dCNMOTP (25 μM) and dTPT3TP (10 μM) (herein afterward referred to in this section as “growth media”). The culture was monitored for cell growth (Envision 2103 Multilabel Plate Reader with a 590/20 nm filter) and then collected at an OD600˜1.0. An aliquot (50 μL) was subjected to plasmid isolation using the ZR Plasmid Prep Kit (Zymo Research). Isolated plasmids were then subjected to the streptavidin gel shift assay described below (using primers P3-4 and P5-6, Table S1) to determine UBP retention.
A colony with excellent UBP retention was then diluted to an OD600˜0.01 in growth media and grown to OD600˜0.4-0.6. This culture was then divided into multiple 300 μL cultures and for the screen of XTP analogs, each was provided with the corresponding XTP (at either 25 μM or 250 μM) or ddH2O for “−XTP” samples, TPT3TP (30 μM), and AzK (10 mM). For the screen of YTP analogs, each 300 μL culture was provided with the corresponding YTP (at either 25 μM or 250 μM) or ddH2O for “−YTP” samples, NaMTP (250 μM), and AzK (10 mM). Samples were shielded from light after addition of AzK to prevent photodegradation. These samples were then grown at 37° C. for 20 min before adding 1 mM IPTG and grown at 37° C. for an additional 1 h to induce T7 RNAP and transcription of tRNAPyl and PylRS. From this point on, cells were monitored for growth and fluorescence. Expression of sfGFP was then induced with anhydrotetracycline (100 ng/mL). After an additional 3 h of growth at 37° C., cells were collected (230 μL for affinity purification of sfGFP), cooled, and then pelleted and stored at −80° C. before protein purification.
An SAR analysis was initiated with NaMTP and the nine XTP analogs. Based on performance in the dXTP screen described above, and to eliminate variable loss at the DNA level as a complicating factor, the unnatural information was encoded with the dCNMO-dTPT3 UBP. Additionally, the E. coli strain ML2, which expresses the nucleoside triphosphate transporter PtNTT2, but has also been genetically engineered for higher fidelity replication of the UBP by deletion of the gene encoding RecA (as is common in cloning strains) and overexpression of DNA Pol II was used. The same plasmid described above in Examples 1A and 1, harboring sfGFP^151(AXC) and tRNA^Pyl(GYT), was used, and to focus the screen to a single unnatural ribonucleotide, the M. mazei Pyl tRNA was transcribed in the presence of 30 μM TPT3TP. […]

COc1cc(C)c(F)cc1[C@@H]1O[C@H](COP(=O)(O)OP(=O)(O)OP(=O)(O)O)[C@@H](O)[C@H]1O [Compound 5FMTP]
More fluorescence than MMO2TP (XTP 25 μM): 34% | Bulk fluorescence compared to cells grown with NaMTP at the same concentration (XTP 250 μM): 90%
